The record followed here is ChEMBL document CHEMBL4342428, “d-Limonene Ameliorates Myocardial Infarction Injury by Reducing Reactive Oxygen Species and Cell Apoptosis in a Murine Model” (2019).

Calls of active or inactive are those of the source. The rule behind the calls is not given here.

Assay [1] deals with Mus musculus. The assay can be described thus: Cardioprotective activity in Swiss mouse model of isoproterenol-induced myocardial Infarction assessed as abnormal ST-segment at 1200 mg/kg administered 30 mins post isoproterenol stimulation and measured for 5 mins by electrocardiographic analysis (reference value: 70%). It counts as functional.
In assay [2] the test system is Mus musculus. Briefly: Cardioprotective activity in Swiss mouse model of myocardial infarction assessed as reversal of isoproterenol-induced increase in QTc interval at 1200 mg/kg administered 30 mins post isoproterenol stimulation and measured for 5 mins by electrocardiographic analysis. It counts as functional, organism-based.
Assay [3] concerns Mus musculus. The assay can be described thus: Cardioprotective activity in Swiss mouse model of myocardial infarction assessed as reversal of isoproterenol-induced increase in heart rate at 1200 mg/kg administered 30 mins post isoproterenol stimulation and measured for 5 mins by electrocardiographic analysis. It is filed as functional, organism-based.
The test system of assay [4] is Mus musculus. The assay can be described thus: Cardioprotective activity in Swiss mouse model of isoproterenol-induced myocardial infarction assessed as reduction in myocardial infarct size at 1200 mg/kg administered 30 mins post isoproterenol stimulation by TTC staining based assay. It counts as functional, organism-based.
The test system of assay [5] is Mus musculus. Briefly: Cardioprotective activity in Swiss mouse model of isoproterenol-induced myocardial infarction assessed as reduction in lactate dehydrogenase at 1200 mg/kg administered 30 mins post isoproterenol stimulation. It is filed as functional, organism-based.
The test system of assay [6] is Mus musculus. The assay can be described thus: Cardioprotective activity in Swiss mouse model of isoproterenol-induced myocardial infarction assessed as reduction in creatine kinase myocardial band at 1200 mg/kg administered 30 mins post isoproterenol stimulation. It counts as functional, organism-based.
Assay [7] has as its system Mus musculus. Briefly: Cardioprotective activity against isoproterenol-induced oxidative stress in Swiss mouse model of myocardial infarction assessed as reduction in ROS generation at 1200 mg/kg administered 30 mins post isoproterenol stimulation by DHE staining based fluorescence assay. It counts as functional, organism-based.
Assay [8] deals with Mus musculus. Briefly: Cardioprotective activity against isoproterenol-induced apoptosis in Swiss mouse model of myocardial infarction assessed as increase in Bcl2 expression at 1200 mg/kg administered 30 mins post isoproterenol stimulation by Western blot analysis. It is filed as functional, organism-based.
Assay [9] deals with Mus musculus. Briefly: Cardioprotective activity against isoproterenol-induced apoptosis in Swiss mouse model of myocardial infarction assessed as reduction in Bax/Bcl2 expression ratio in at 1200 mg/kg administered 30 mins post isoproterenol stimulation by Western blot analysis. It counts as functional, organism-based. (Immunoblotting shows a protein as a band on a membrane.)

The test system of assay [10] is Mus musculus. The assay can be described thus: Cardioprotective activity against isoproterenol-induced apoptosis in Swiss mouse model of myocardial infarction assessed as reduction in Bax expression at 1200 mg/kg administered 30 mins post isoproterenol stimulation by Western blot analysis. It is filed as functional, organism-based.
For assay [11], the system named is Mus musculus. The assay can be described thus: Cardioprotective activity in Swiss mouse model of isoproterenol-induced myocardial Infarction assessed as abnormal ST-segment at 10 umol, ip administered 30 mins post isoproterenol stimulation and measured for 5 mins by electrocardiographic analysis (reference value: 70%). It is filed as functional.
Assay [12] has as its system Mus musculus. Briefly: Cardioprotective activity in Swiss mouse model of myocardial infarction assessed as reversal of isoproterenol-induced increase in QTc interval at 10 umol, ip administered 30 mins post isoproterenol stimulation and measured for 5 mins by electrocardiographic analysis. It counts as functional, organism-based.
Assay [13] has as its system Mus musculus. Briefly: Cardioprotective activity in Swiss mouse model of myocardial infarction assessed as reversal of isoproterenol-induced increase in heart rate at 10 umol, ip administered 30 mins post isoproterenol stimulation and measured for 5 mins by electrocardiographic analysis. It counts as functional, organism-based.
The test system of assay [14] is Mus musculus. The assay can be described thus: Cardioprotective activity in Swiss mouse model of isoproterenol-induced myocardial infarction assessed as reduction in myocardial infarct size at 10 umol, ip administered 30 mins post isoproterenol stimulation by TTC staining based assay. It is filed as functional, organism-based.
For assay [15], the system named is Mus musculus. The assay can be described thus: Cardioprotective activity in Swiss mouse model of isoproterenol-induced myocardial infarction assessed as reduction in inflammatory cell infiltration in myocardium at 10 umol, ip administered 30 mins post isoproterenol stimulation by H and E staining based histopathological analysis. It counts as functional, organism-based.

Assay [16] deals with Mus musculus. Briefly: Cardioprotective activity in Swiss mouse model of isoproterenol-induced myocardial infarction assessed as reduction in lactate dehydrogenase at 10 umol, ip administered 30 mins post isoproterenol stimulation. It counts as functional, organism-based.
Assay [17] relates to Mus musculus. The assay can be described thus: Cardioprotective activity in Swiss mouse model of isoproterenol-induced myocardial infarction assessed as reduction in creatine kinase myocardial band at 10 umol, ip administered 30 mins post isoproterenol stimulation. It is filed as functional, organism-based.
Assay [18] concerns Mus musculus. The assay can be described thus: Cardioprotective activity in Swiss mouse model of myocardial infarction assessed as protection against isoproterenol-induced discontinuity in myocardium at 10 umol, ip administered 30 mins post isoproterenol stimulation by H and E staining based histopathological analysis. It is filed as functional, organism-based.
The subject of assay [19] is Mus musculus. Briefly: Cardioprotective activity in Swiss mouse model of myocardial infarction assessed as protection against isoproterenol-induced mononuclear cell infiltration in myocardium at 10 umol, ip administered 30 mins post isoproterenol stimulation by H and E staining based histopathological analysis. It counts as functional, organism-based.
In assay [20] the test system is Mus musculus. Briefly: Cardioprotective activity in Swiss mouse model of myocardial infarction assessed as protection against isoproterenol-induced degeneration in myocardium at 10 umol, ip administered 30 mins post isoproterenol stimulation by H and E staining based histopathological analysis. It is filed as functional, organism-based.
Assay [21] concerns Mus musculus. The assay can be described thus: Cardioprotective activity in Swiss mouse model of myocardial infarction assessed as protection against isoproterenol-induced wide spacing in myocardium at 10 umol, ip administered 30 mins post isoproterenol stimulation by H and E staining based histopathological analysis. It is filed as functional, organism-based.
In assay [22] the test system is Mus musculus. The assay can be described thus: Cardioprotective activity in Swiss mouse model of myocardial infarction assessed as protection against isoproterenol-induced vacuolation in myocardium at 10 umol, ip administered 30 mins post isoproterenol stimulation by H and E staining based histopathological analysis. It counts as functional, organism-based.
Assay [23] deals with Mus musculus. Briefly: Cardioprotective activity in Swiss mouse model of myocardial infarction assessed as protection against isoproterenol-induced capillary congestion in myocardium at 10 umol, ip administered 30 mins post isoproterenol stimulation by H and E staining based histopathological analysis. It counts as functional, organism-based.
Assay [24] deals with Mus musculus. Briefly: Cardioprotective activity against isoproterenol-induced oxidative stress in Swiss mouse model of myocardial infarction assessed as reduction in ROS generation at 10 umol, ip administered 30 mins post isoproterenol stimulation by DHE staining based fluorescence assay. It counts as functional, organism-based.
Assay [25] relates to Mus musculus. The assay can be described thus: Cardioprotective activity against isoproterenol-induced oxidative stress in Swiss mouse model of myocardial infarction assessed as reduction in lipid peroxidation at 10 umol, ip administered 30 mins post isoproterenol stimulation by TBARS method. It counts as functional, organism-based.
Assay [26] concerns Mus musculus. Briefly: Cardioprotective activity against isoproterenol-induced oxidative stress in Swiss mouse model of myocardial infarction assessed as reduction in protein carbonylation at 10 umol, ip administered 30 mins post isoproterenol stimulation by spectrophotometric method. It counts as functional, organism-based.
Assay [27] concerns Mus musculus. The assay can be described thus: Cardioprotective activity against isoproterenol-induced oxidative stress in Swiss mouse model of myocardial infarction assessed as reduction in sulfhydryl level in cardiac tissue homogenate at 10 umol, ip administered 30 mins post isoproterenol stimulation by spectrophotometric method. It counts as functional, organism-based.
Assay [28] relates to Mus musculus. Briefly: Cardioprotective activity against isoproterenol-induced oxidative stress in Swiss mouse model of myocardial infarction assessed as change in ferric ion reducing activity at 10 umol, ip administered 30 mins post isoproterenol stimulation by FRAP assay. It counts as functional, organism-based.
In assay [29] the test system is Mus musculus. Briefly: Cardioprotective activity against isoproterenol-induced oxidative stress in Swiss mouse model of myocardial infarction assessed as increase in catalase activity at 10 umol, ip administered 30 mins post isoproterenol stimulation by spectrophotometric method. It counts as functional, organism-based.
The subject of assay [30] is Mus musculus. Briefly: Cardioprotective activity against isoproterenol-induced oxidative stress in Swiss mouse model of myocardial infarction assessed as increase in SOD activity at 10 umol, ip administered 30 mins post isoproterenol stimulation by spectrophotometric method. It counts as functional, organism-based.
Assay [31] relates to Mus musculus. The assay can be described thus: Cardioprotective activity against isoproterenol-induced oxidative stress in Swiss mouse model of myocardial infarction assessed as increase in GPx activity at 10 umol, ip administered 30 mins post isoproterenol stimulation by spectrophotometric method. It counts as functional, organism-based.
Assay [32] concerns Mus musculus. The assay can be described thus: Cardioprotective activity against isoproterenol-induced apoptosis in Swiss mouse model of myocardial infarction assessed as reduction in Bax expression at 10 umol, ip administered 30 mins post isoproterenol stimulation by Western blot analysis. It counts as functional, organism-based.
Assay [33] has as its system Mus musculus. The assay can be described thus: Cardioprotective activity against isoproterenol-induced apoptosis in Swiss mouse model of myocardial infarction assessed as change in Bcl2 expression at 10 umol, ip administered 30 mins post isoproterenol stimulation by Western blot analysis. It counts as functional, organism-based.
Assay [34] deals with Mus musculus. The assay can be described thus: Cardioprotective activity against isoproterenol-induced apoptosis in Swiss mouse model of myocardial infarction assessed as reduction in Bax/Bcl2 expression ratio in at 10 umol, ip administered 30 mins post isoproterenol stimulation by Western blot analysis. It counts as functional, organism-based.
Assay [35] relates to Mus musculus. Briefly: Cardioprotective activity against isoproterenol-induced oxidative stress in Swiss mouse model of myocardial infarction assessed as reduction in caspase-3 expression at 10 umol, ip administered 30 mins post isoproterenol stimulation by Western blot analysis. It is filed as functional, organism-based.

Regarding `CC(=O)N[C@@H](CS)C(=O)O` [ACETYLCYSTEINE], the Activity in the assay with Mus musculus [1] was found to be 20%. In addition, the result with Mus musculus [2], in the assay on Mus musculus [3], in the assay on Mus musculus [4], in the assay with Mus musculus [5], in the assay with Mus musculus [6] and with Mus musculus [7] was Active. Besides, the outcome with Mus musculus [8], in the assay with Mus musculus [9] and in the assay on Mus musculus [10] was Active.

For the compound `C=C(C)[C@H]1CC=C(C)CC1` [D-LIMONENE], the Activity with Mus musculus [11] is recorded as 30%. The outcome in the assay with Mus musculus [12], in the assay on Mus musculus [13], in the assay with Mus musculus [14], in the assay with Mus musculus [15], with Mus musculus [16] and with Mus musculus [17] was Active. In addition, the result with Mus musculus [18], with Mus musculus [19], with Mus musculus [20], in the assay on Mus musculus [21], in the assay with Mus musculus [22] and in the assay with Mus musculus [23] was Active. Besides, the result with Mus musculus [24], in the assay on Mus musculus [25], with Mus musculus [26], in the assay with Mus musculus [27], in the assay on Mus musculus [30] and with Mus musculus [31] was Active. The outcome in the assay on Mus musculus [32], in the assay with Mus musculus [34] and in the assay with Mus musculus [35] was Active. Also, the result in the assay with Mus musculus [28], with Mus musculus [29] and in the assay with Mus musculus [33] was inactive.
